The nature of data set [1]: Comparative water solubility of 1:1 and 1:1.3 levulinate salts. The format is physicochemical.
Data set [2] can be described thus: Comparative water stability of 1:1 and 1:1.3 levulinate salts. The format is physicochemical.
The nature of data set [3]: Plasma levels in dogs after oral administration by gavage. The format is in vivo. As to conditions: equivalent to 10 mg. BL-5111 free base, fasted beagle dogs. On the procedure: With respect to oral administration, the BL-5111 levulinate provides improved absorption compared to the hydrochloride salt as illustrated by enhanced plasma levels in dogs. Thus, BL-5111 levulinate (equivalent to 10 mg. of BL-5111 free base) was orally administered by gavage as a solution in 5 ml. of water followed by 20 ml. of water to beagle dogs which had been fasted 12 to 15 hours. The BL-5111 hydrochloride (equivalent to 10 mg. of the BL-5111 free base) was likewise administered with the exception that a suspension was employed due to tendency of the hydrochloride to dissolve at a rate appreciably slower than the levulinate. […] Moreover, maximum plasma level following administration was approximately three-fold greater for the levulinate than the hydrochloride while the extent of absorption of BL-5111 levulinate (determined by comparison of the area under plasma concentration-time curves taken over a period of 24 hr.) was more than double that of BL-5111 hydrochloride.

Data set [4] is described as follows: Comparative quantitative solubility study in water and methylene chloride. The data set is classed as physicochemical. As to conditions: 25° C.; for Solubility in Methylene Chloride: measure of lipid solubility. The text has this:
In comparison to the hydrochloride salt of BL-5111, the 1:1.3 levulinate salt form has substantially greater water and lipid solubility. TABLE 3 below sets forth results of a comparative quantitative study of the BL-5111 hydrochloride and the 1:1.3 levulinate salt in water and methylene chloride. Solubility in methylene chloride is a measure of lipid solubility which plays an important role in any distribution in the body.

Data set [5] can be described thus: In situ solubility of acid addition salts of BL-5111 in water. The format is physicochemical. As to conditions: for Solubility 50° C. / Solubility 25° C.: 10 mg. BL-5111 free base in 0.3 ml. water with excess of the acid; for Solubility 25° C.: room temperature (about 25° C.).

Results on 13 compounds are retold here after patent US4161595A, “Levulinic acid salt” (Bristol-Myers Company, priority 1978, dated 1979).

Each structure is given as a SMILES string. In brackets after ≈: the same amount, converted by molar mass. Structures can show the parent of a compound that is named as a salt.

One may read the Solubility as how much of the substance goes into solution per volume. Consider `COc1cc2nc(N3CCN(C(=O)c4nnc(SC)o4)CC3)nc(N)c2cc1OC` [1:1, levulinic acid salt of 4-amino-6,7-dimethoxy-2-[4-(5-methylthio-1,3,4-oxadiazole-2-carbonyl)-piperazin-1-yl]quinazoline], for which the Solubility result in data set [1] (2.5 mg./ml., at 50° C.) is on record as “soluble”; in data set [1] (10 mg./ml., at 50° C.), “soluble”; in data set [1] (50 mg./ml., at 80° C.), “insoluble”. The “Solubility and stability relative to the 1:1.3 levulinate” value in data set [2] (water, Table 2 data) was “relatively less soluble and stable”.
As to `COc1cc2nc(N3CCN(C(=O)c4nnc(SC)o4)CC3)nc(N)c2cc1OC` [1:1.3 levulinate, 4-AMINO-6,7-DIMETHOXY-2-[4-(5-METHYLTHIO-1,3,4-OXADIAZOLE-2-CARBONYL)-PIPERAZIN-1-YL]QUINAZOLINE LEVULINATE], the Solubility entry in data set [1] (10 mg./ml., room temperature) is reported as “soluble”; in data set [1] (50 mg./ml., at 50° C.) it was “soluble”. In addition, the “Stability of aqueous solution” value in data set [2] (room temperature) is given as “stable”. Also, the Stability result in data set [2] (water, 10 mg./ml., room temperature, listed as 1:1.3) was “stable”; in data set [2] (water, 50 mg./ml., room temperature), “stable”. The “Maximum plasma level relative to the hydrochloride” value in data set [3] is on record as “approximately three-fold”. The “Extent of absorption (area under plasma concentration-time curves) relative to BL-5111 hydrochloride” value in data set [3] (over 24 hr.) was “more than double”. Moreover, the “Solubility in Water” value in data set [4] came out at 38.0 mg/mL (≈ 88.1 mM). Besides, the “Water solubility, times that of the hydrochloride salt” value in data set [4] is recorded as “about 8.6 times”. The “Solubility in Methylene Chloride” value in data set [4] was above 100 mg/mL.
Turning to `COc1cc2nc(N3CCN(C(=O)c4nnc(SC)o4)CC3)nc(N)c2cc1OC` [acetic], in data set [5], the “Solubility 50° C.” value was “+ (soluble (+))” and the “Solubility 25° C.” value was “+ (soluble (+))”. Besides, in data set [5] (room temperature, 10 mg./0.3 ml. water, read-out: Solubility sufficient to provide a solution), the Solubility was at least 33 mg/mL.
Take `COc1cc2nc(N3CCN(C(=O)c4nnc(SC)o4)CC3)nc(N)c2cc1OC` [formic]: in data set [5], the “Solubility 50° C.” value is recorded as “+ (soluble (+))” and the “Solubility 25° C.” value was “± (questionable (±))”.
Turning to `COc1cc2nc(N3CCN(C(=O)c4nnc(SC)o4)CC3)nc(N)c2cc1OC` [fumaric], in data set [5], the “Solubility 50° C.” value is given as “- (insoluble (-))” and the “Solubility 25° C.” value is “- (insoluble (-))”.
For `COc1cc2nc(N3CCN(C(=O)c4nnc(SC)o4)CC3)nc(N)c2cc1OC` [hydrobromic], in data set [5], the “Solubility 50° C.” value was “- (insoluble (-))” and the “Solubility 25° C.” value is “- (insoluble (-))”.
As to `COc1cc2nc(N3CCN(C(=O)c4nnc(SC)o4)CC3)nc(N)c2cc1OC` [hydrochloride], in data set [5] (listed as hydrochloric), the “Solubility 50° C.” value was “- (insoluble (-))” and the “Solubility 25° C.” value is given as “- (insoluble (-))”. Moreover, the “Time at which maximum plasma levels reached” value in data set [3] (levulinate as solution, hydrochloride as suspension, listed as BL-5111 hydrochloride) came out at 2 h. In data set [4], the “Solubility in Water” value worked out at 4.42 mg/mL and the “Solubility in Methylene Chloride” value is below 1 mg/mL.
With `COc1cc2nc(N3CCN(C(=O)c4nnc(SC)o4)CC3)nc(N)c2cc1OC` [isethionic], in data set [5], the “Solubility 50° C.” value was “- (insoluble (-))” and the “Solubility 25° C.” value is given as “- (insoluble (-))”.
`COc1cc2nc(N3CCN(C(=O)c4nnc(SC)o4)CC3)nc(N)c2cc1OC` [methanesulfonic]: in data set [5], the “Solubility 50° C.” value is recorded as “- (insoluble (-))” and the “Solubility 25° C.” value is on record as “- (insoluble (-))”.
With `COc1cc2nc(N3CCN(C(=O)c4nnc(SC)o4)CC3)nc(N)c2cc1OC` [nitric], in data set [5], the “Solubility 50° C.” value is given as “- (insoluble (-))” and the “Solubility 25° C.” value is listed as “- (insoluble (-))”.
On to `COc1cc2nc(N3CCN(C(=O)c4nnc(SC)o4)CC3)nc(N)c2cc1OC` [phosphoric], for which, in data set [5], the “Solubility 50° C.” value was “- (insoluble (-))” and the “Solubility 25° C.” value was “- (insoluble (-))”.
Take `COc1cc2nc(N3CCN(C(=O)c4nnc(SC)o4)CC3)nc(N)c2cc1OC` [succinic]: in data set [5], the “Solubility 50° C.” value was “+ (soluble (+))” and the “Solubility 25° C.” value is listed as “- (insoluble (-))”.
For `COc1cc2nc(N3CCN(C(=O)c4nnc(SC)o4)CC3)nc(N)c2cc1OC` [sulfuric], in that order: “- (insoluble (-))” and “- (insoluble (-))”.
